Results taken from patent publication EP0737691A1, “Bombesin analogs” (BIOMEASURE, INC., priority 1995, dated 1996).
Where two headings read alike, the source gives them in different places. Square brackets hold non-standard residues; d marks the D form. Peptide text beside a SMILES is read from it. Nle = CCCC[C@H](N)C(=O)O; βAla = NCCC(=O)O

Experiments:
GRP receptor = target: T1, GRP receptor (Rattus norvegicus, UniProt P52500); experiment: GRP Receptor Binding Assay ([125I-Tyr4] bombesin displacement, AR42J cell membranes)
T1 construct: endogenous in cells; host or cells: Rat AR42J pancreatic acinar cells (membranes)
T1 sequence (P52500 whole entry): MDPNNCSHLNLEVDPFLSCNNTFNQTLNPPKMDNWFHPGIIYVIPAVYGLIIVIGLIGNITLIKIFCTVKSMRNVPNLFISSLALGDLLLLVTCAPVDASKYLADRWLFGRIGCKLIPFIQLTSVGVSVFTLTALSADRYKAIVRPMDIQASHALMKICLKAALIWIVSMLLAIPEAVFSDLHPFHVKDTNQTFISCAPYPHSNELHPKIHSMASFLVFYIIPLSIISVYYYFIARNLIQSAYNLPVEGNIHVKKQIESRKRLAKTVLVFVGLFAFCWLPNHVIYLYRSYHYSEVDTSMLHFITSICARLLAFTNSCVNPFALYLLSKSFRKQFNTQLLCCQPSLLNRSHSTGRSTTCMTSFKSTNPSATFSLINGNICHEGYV
Method: Rat AR42J pancreatic acinar cells were cultured in Dulbecco's modified Eagle's medium without antibiotics and supplemented with 10% (vol/vol) fetal calf serum. The incubation atmosphere consisted of 10% CO2-90% humidified air at 37°C.
(§1) Membranes for the bombesin receptor binding assay were obtained by homogenizing AR42J cells (Polytron, setting 6, 15 sec)(Brinkman, Westbury, NY) in ice-cold 50 mM Tris-HCl (Buffer A) and centrifuging twice at 39,000 x g (10 min), with an intermediate resuspension in fresh Buffer A. The final pellets were resuspended in 50 mM Tris-HCl, containing 0.1 mg/ml bacitracin, and 0.1% BSA (Buffer B), and held on ice for the receptor binding assay.

rat NMB receptor = target: T2, rat NMB receptor (Rattus norvegicus, UniProt P24053); experiment: NMB Receptor Binding Assay (membranes of BALB-3T3 fibroblasts transfected with the rat NMB receptor); settings: for IC50: affinity for the NMB receptor, BALB-3T3 fibroblasts transfected with the rat NMB receptor, 30 min, 4°C
T2 construct: expressed in transfected cells; host or cells: BALB-3T3 (mouse) fibroblasts
T2 sequence (P24053 1-390): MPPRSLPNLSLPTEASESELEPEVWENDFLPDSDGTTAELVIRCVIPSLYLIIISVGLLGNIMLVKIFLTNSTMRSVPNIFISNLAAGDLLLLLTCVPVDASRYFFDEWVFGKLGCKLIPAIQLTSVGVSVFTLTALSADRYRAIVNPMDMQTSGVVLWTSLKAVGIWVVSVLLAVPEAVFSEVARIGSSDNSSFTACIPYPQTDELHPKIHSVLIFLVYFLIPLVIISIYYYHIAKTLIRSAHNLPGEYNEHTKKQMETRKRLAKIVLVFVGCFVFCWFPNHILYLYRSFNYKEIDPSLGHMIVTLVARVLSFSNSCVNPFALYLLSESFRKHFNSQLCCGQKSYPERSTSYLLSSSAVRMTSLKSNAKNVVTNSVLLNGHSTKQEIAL
Method: The procedure for transfecting the rat NMB receptor into BALB-3T3 fibroblasts is discussed in Wada, et al., Neuron, […] (1991) and Benya, et al., Mol. Pharmacol., 42:1058 (1992).
as §1, with “[…] fibroblasts, transfected with the rat NMB receptor” for “AR42J cells”, “sec)” for “sec)(Brinkman, Westbury, NY)”
For assay, aliquots (0.4 ml) were incubated with 0.05 ml [^125 I-Tyr^4] bombesin (∼2200 Ci/mmol, New England Nuclear) and Buffer B, with and without 0.05 ml of unlabeled competing analogs. After a 30 min incubation (4°C), the bound [^125 I-Tyr^4] bombesin was separated from the free by rapid filtration through Whatman™ GF/B filters which had been previously soaked in 0.3% polyethyleneimine using a Brandel filtration manifold. The filters were then washed three times with 5 ml aliquots of ice-cold Buffer A. Specific binding was defined as the total [^125 I-Tyr^4] […] bound minus that bound in the presence of 1 µM unlabeled neuromedin-B.
Replacement of Gly at position A^6 in a prior art compound (i.e., litorin, leu-litorin, and [D-Phe^1, Leu^8,9] litorin) with β-Ala led unexpectedly to a great increase in their affinity for the NMB receptor. […] Modifications at position A^1, A^8, or A^9 further increases the affinity. […]

R-3327/H prostate tumor = experiment: Assay on in vivo prostate tumor growth; design: species or system Copenhagen male rats; settings: 200 mg/inj. s.c., B.I.D., 24 days; castrated rats with tumors escaped from castration inhibition; versus vehicle; after day 17; Fig. 1
Source text: The androgen responsive R-3327/H prostate tumor line was implanted into 38 testes-intact, syngeneic Copenhagen male rats. The tumored animals were individually staged for castration when their tumors reached a size approximating 235 mgs. Tumors were then staged for bombesin analogue treatment when two sequential tumor measurements indicated an "escape from castration inhibition" condition, as evidenced by an increase in tumor growth rate. This transition of the prostate tumor tissue from androgen sensitive to androgen insensitive occurred without surgical perturbation of the tumor, thus providing a clinically realistic model for evaluating the anti-prostate tumor activity of the bombesin analogues.
The tumored animals were separated into two groups of 19 animals. Treatment was only initiated when tumors reached the "escape from castration inhibition" condition. Group 1 received 0.2 ml/inj. of 2.6% glycerol/water vehicle, (s.c., B.I.D.). Group 2 received a […]. of Analog #5 (s.c., B.I.D.). […] Tumors were measured using Vernier calipers and the volume was calculated using the following formula: (0.5)(length)(width)^2
Fig. 1 illustrates the tumor growth inhibitory effect of the treatments in Group 1 and Group 2. Relative tumor volume was calculated by the following formula: (Tumor Volume (measuring day))/(Tumor Volume (staging day))x 100 [formula] […]

[1] = affinity for the GRP receptor, [125I-Tyr4] bombesin, rat AR42J pancreatic acinar cell membranes, 30 min, 4°C, read-out: IC50

IC50 (GRP receptor; [1]) [nM] | SMILES | IC50 (GRP receptor) [nM] | IC50 (rat NMB receptor) [nM] | increase in the affinity for the NMB receptor (rat NMB receptor; fold increase compared with litorin or [D-Phe1, Leu8,9] litorin) [time] | binding affinity on the NMB receptor (rat NMB receptor; result in words) | Rate of tumor growth (R-3327/H prostate tumor)
 | CSCC[C@H](NC(=O)[C@H](Cc1ccccc1)NC(=O)[C@H](Cc1c[nH]cn1)NC(=O)CNC(=O)[C@@H](NC(=O)[C@H](C)NC(=O)[C@H](Cc1c[nH]c2ccccc12)NC(=O)[C@H](CCC(N)=O)NC(=O)[C@@H]1CCC(=O)N1)C(C)C)C(N)=O [Litorin, p-Glu-Gln-Trp-Ala-Val-Gly-His-Phe-Met-NH2, reference compound] | 2.4 | 1.66 |  |  | 
0.1 | CCCC[C@H](NC(=O)[C@H](Cc1ccccc1)NC(=O)[C@H](Cc1c[nH]cn1)NC(=O)CCNC(=O)[C@@H](NC(=O)[C@H](C)NC(=O)[C@H](Cc1c[nH]c2ccccc12)NC(=O)[C@H](CCC(N)=O)NC(=O)[C@H](N)Cc1c[nH]c2ccccc12)C(C)C)C(N)=O [Analog #4, H-D-Trp-Gln-Trp-Ala-Val-β-Ala-His-Phe-Nle-NH2] (H-[dW]QWAV[βAla]HF[Nle]-NH2) |  | 0.04 |  |  | 
 | CC(C)C[C@H](NC(=O)[C@H](CC(C)C)NC(=O)[C@H](Cc1c[nH]cn1)NC(=O)CNC(=O)[C@@H](NC(=O)[C@H](C)NC(=O)[C@H](Cc1c[nH]c2ccccc12)NC(=O)[C@H](CCC(N)=O)NC(=O)[C@H](N)Cc1ccccc1)C(C)C)C(N)=O [[D-Phe^1, Leu^8,9] litorin, H-D-Phe-Gln-Trp-Ala-Val-Gly-His-Leu-Leu-NH2, reference compound] | 2.8 | 480 |  |  | 
 | CC(C)C[C@H](NC(=O)[C@H](CC(C)C)NC(=O)[C@H](Cc1c[nH]cn1)NC(=O)CNC(=O)[C@@H](NC(=O)[C@H](C)NC(=O)[C@H](Cc1c[nH]c2ccccc12)NC(=O)[C@H](CCC(N)=O)NC(=O)[C@@H]1CCC(=O)N1)C(C)C)C(N)=O [Leu-Litorin, p-Glu-Gln-Trp-Ala-Val-Gly-His-Leu-Leu-NH2, reference compound] | 23 | > 10000 |  | almost no binding affinity | 
0.2 | CCCC[C@H](NC(=O)[C@H](Cc1ccccc1)NC(=O)[C@H](Cc1c[nH]cn1)NC(=O)CCNC(=O)[C@@H](NC(=O)[C@H](C)NC(=O)[C@H](Cc1c[nH]c2ccccc12)NC(=O)[C@H](CCC(N)=O)NC(=O)[C@H](N)Cc1ccccc1)C(C)C)C(N)=O [Analog #1, H-D-Phe-Gln-Trp-Ala-Val-β-Ala-His-Phe-Nle-NH2] (H-[dF]QWAV[βAla]HF[Nle]-NH2) |  | 1 |  |  | 
2.1 | CCCC[C@H](NC(=O)[C@H](CC(C)C)NC(=O)[C@H](Cc1c[nH]cn1)NC(=O)CCNC(=O)[C@@H](NC(=O)[C@H](C)NC(=O)[C@H](Cc1c[nH]c2ccccc12)NC(=O)[C@H](CCC(N)=O)NC(=O)[C@H](N)Cc1ccccc1)C(C)C)C(N)=O [Analog #5, H-D-Phe-Gln-Trp-Ala-Val-β-Ala-His-Leu-Nle-NH2] (H-[dF]QWAV[βAla]HL[Nle]-NH2) |  | 8.9 |  |  | significantly (p < 0.05) inhibited
 | CCCC[C@H](NC(=O)[C@H](Cc1ccccc1)NC(=O)[C@H](Cc1cnc[nH]1)NC(=O)CCNC(=O)[C@@H](NC(=O)[C@H](C)NC(=O)[C@H](Cc1c[nH]c2ccccc12)NC(=O)[C@H](CCC(N)=O)NC(=O)[C@H](N)Cc1ccc(O)cc1)C(C)C)C(N)=O [Analog #3, H-D-Tyr-Gln-Trp-Ala-Val-β-Ala-His-Phe-Nle-NH2] (H-[dY]QWAV[βAla]HF[Nle]-NH2) |  | 1 |  |  | 

SMILES | IC50 (GRP receptor; [1]) [nM] | IC50 (GRP receptor) [nM] | IC50 (rat NMB receptor) [nM] | increase in the affinity for the NMB receptor (rat NMB receptor; fold increase compared with litorin or [D-Phe1, Leu8,9] litorin) [time] | binding affinity on the NMB receptor (rat NMB receptor; result in words) | Rate of tumor growth (R-3327/H prostate tumor)
CC(C)C[C@H](NC(=O)[C@H](CC(C)C)NC(=O)[C@H](Cc1c[nH]cn1)NC(=O)CCNC(=O)[C@@H](NC(=O)[C@H](C)NC(=O)[C@H](Cc1c[nH]c2ccccc12)NC(=O)[C@H](CCC(N)=O)NC(=O)[C@H](N)Cc1ccccc1)C(C)C)C(N)=O [Analog #2, H-D-Phe-Gln-Trp-Ala-Val-β-Ala-His-Leu-Leu-NH2] (H-[dF]QWAV[βAla]HLL-NH2) | 1 |  | 41 | 11.7 |  | 
